# According to US12171554B2, “Marker monitoring via a medical device” (Medtronic, Inc., priority 2017, dated 2024):
# Experiment: Fluorophore detection in interstitial fluid (ISF) of rats after IV or PO dosing, subcutaneous optical PMMA fiber and reader device
# Conditions: rat, in vivo
# Text: Study Protocol: The purpose of the study was to investigate in an acute or semi-chronic rat trial set-up if fluorophores are detectable in the ISF (InterStitial Fluid) when injected IV or given to the rat Per Oral (PO). Four rat subjects (Rat 001, Rat 002, Rat 003, and Rat 004) were included in the study. The procedure of the study was as follows: Rat subjects were Sprague Dawley rats, male, Diet Induced Obese (DIO). For each rat, the rat was anaesthesized, shaved and cleaned on the back for PMMA optical fiber insertion. A tail venous catheter was placed and two 250 um optical PMMA fibers were placed in the subcutaneous fat tissue of the DIO rat. The base and tape of the sensor unit was sutured to the skin.
# For Rats 001 and 002, a reader device suitable for indocyanine green dye detection was mounted. [ . . . ] Rat 002 died during oral dosing while under anesthesia due to lack of swallowing reflex.
# For Rats 003 and 004 reader devices suitable for Alexa Fluor 594™ (AF594) detection were mounted. Recording began using RF data transfer (GST protocol, MDT Diabetes). A first IV injection of 0.01 mg AF594 was injected (1 mL into tail vein). Rise and decay of fluorescence was observed before a second injection of 1 mL of 0.01 mg AF594 into the tail vein. Anesthesia then was removed and the rat was placed into a cage. […]
compound,measurement,value
CC1(C)C(/C=C/C=C/C=C/C=C2\N(CCCCS(=O)(=O)O)c3ccc4ccccc4c3C2(C)C)=[N+](CCCCS(=O)(=O)[O-])c2ccc3ccccc3c21 [Indo Cyanine Green],clearance from the ISF after IV dosing,relatively fast clearance
same,signal in ISF after IV dosing,distinct signals
